Test results published in PMC5318439, “The Novel Toll-Like Receptor 2 Agonist SUP3 Enhances Antigen Presentation and T Cell Activation by Dendritic Cells” (Frontiers in Immunology, 2017).
Where a SMILES comes first, the peptide text is derived from it. The star is where a group is joined. X1 = CCCCCCCCCCCCCCNC(=O)OC[C@H](C*)OC(=O)NCCCCCCCCCCCCCC; Palmitoyl = CCCCCCCCCCCCCCCC(=O)*

Key:
TLR2 = TLR2 (Homo sapiens, UniProt O60603); assay: Affinity of TLR2 agonist for TLR2; type: binding; settings: compared with Pam3; Figure S3A
TLR2, sequence (O60603 21-784, species assumed): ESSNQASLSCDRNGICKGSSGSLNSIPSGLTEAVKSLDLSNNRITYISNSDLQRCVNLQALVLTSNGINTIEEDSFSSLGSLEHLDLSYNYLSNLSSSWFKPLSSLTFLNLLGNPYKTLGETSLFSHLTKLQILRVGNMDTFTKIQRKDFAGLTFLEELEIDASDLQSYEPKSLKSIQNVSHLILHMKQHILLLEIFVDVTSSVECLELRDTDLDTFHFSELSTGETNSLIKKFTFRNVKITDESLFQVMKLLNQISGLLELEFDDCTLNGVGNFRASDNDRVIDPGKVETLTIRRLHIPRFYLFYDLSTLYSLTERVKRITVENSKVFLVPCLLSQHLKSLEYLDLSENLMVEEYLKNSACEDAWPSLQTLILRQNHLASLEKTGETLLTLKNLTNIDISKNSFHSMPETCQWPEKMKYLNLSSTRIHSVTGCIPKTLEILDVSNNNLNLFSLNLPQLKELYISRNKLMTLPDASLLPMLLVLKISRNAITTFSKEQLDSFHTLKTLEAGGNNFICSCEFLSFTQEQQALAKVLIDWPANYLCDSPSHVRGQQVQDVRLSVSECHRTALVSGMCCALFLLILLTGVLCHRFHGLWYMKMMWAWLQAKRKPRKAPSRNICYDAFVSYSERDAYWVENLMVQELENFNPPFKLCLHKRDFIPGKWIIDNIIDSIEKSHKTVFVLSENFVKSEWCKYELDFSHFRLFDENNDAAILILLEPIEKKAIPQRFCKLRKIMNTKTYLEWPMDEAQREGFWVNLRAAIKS
From the text: Pam3 is a lipopeptide and serves as a TLR2 agonist through binding to TLR2/TLR1 heterodimer. Although Pam3 is widely used as a TLR2 agonist, some intrinsic problems remain in detailed mechanism studies and drug development. The two ester groups of Pam3 can be easily hydrolyzed in plasma, and the hydroxyl group in serine could be readily oxidized in physiological conditions (Figure S1A in Supplementary Material). […] In addition, we displaced serine residue in Pam3 with glycine residue to eliminate this chiral center (Figures S1A,B in Supplementary Material). Since the third lysine residue in Pam3 is crucial for H bonding, we kept three lysine residues in the new molecule and removed the forth lysine residue to further reduce the molecular weight of the new TLR2 agonist, (2S,5S,8S,14R,18R)-2,5,8-tris(4-aminobutyl)-4,7,10,13,21-pentaoxo-14-palmitamido-18-((tetradecylcarbamoyl)oxy)-20-oxa-16-thia-3,6,9,12,22-pentaazahexatriacontan-1-oic acid. It is termed SUP3 (Figure 1A; Figures S1A,B in Supplementary Material). Chemical characterization of SUP3 by ^1H nuclear magnetic resonance and electrospray ionization mass spectrum analysis further confirm the structure (Figures S2A,B in Supplementary Material).

[1] = TD antigen (NP-KLH) immunization and antibody titer analysis; type: in vivo, mice; settings: NP-KLH 5 µg per mouse i.p. with 2 nmol per mouse; serum ELISA weekly; vs Pam3
Protocol: Thymus-dependent antigen immunization and antibody titer analysis were performed as previously described ([43]). Briefly, wild-type (WT) mice were immunized by i.p. injection of TD antigen nitrophenyl-keyhole limpet hemocyanin (NP-KLH, 5 µg per mouse; Biosearch Technologies N-5060) alone, or mixed with SUP3 (2 nmol per mouse), Pam3 (2 nmol per mouse), or alum (3 µg per mouse; Thermo 77161). Serum was harvested every week, and nitrophenyl-specific IgM and IgG were determined by ELISA. IgM and total IgG were captured by nitrophenyl 30mer (Biosearch Technologies N-5050H), and high affinity IgG was captured by nitrophenyl 8mer (Biosearch Technologies N-5050L) pre-coated ELISA plates (Corning 9018).
Figure 5 SUP3 enhanced antigen presentation ability of CD11b^+ conventional dendritic cells (cDCs) and production of antibodies against thymus-dependent (TD) antigens. […] Three days after immunization, division of OT-II CD4^+ T cells from inguinal lymph nodes were analyzed by flow cytometry (B). Absolute numbers of proliferated OT-II CD4^+ T cells were calculated in (C). […] Cells were then thoroughly washed and cocultured with CFSE-stained OT-II CD4^+ T cells for 4 days and analyzed by flow cytometry. (D) The division of OT-II cells was measured by reduced level of CFSE-labeling. (E) Absolute numbers of proliferated T cells from (D) were calculated. […]

OT-II CD4^+ T cells = assay: OT-II CD4+ T cell activation in vivo; set-up: species or system mice; settings: OVA 100 µg per mouse s.c. with 2 nmol per mouse, 3 days; vs Pam3
Protocol: Carboxyfluorescein diacetate succinimidyl ester-stained OT-II CD4^+ T cells (2 × 10^6 cells per mouse) were transferred into mice 1 day prior immunization. Then the recipients were subcutaneously (s.c.) injected with OVA alone (100 µg per mouse), or OVA mixed with SUP3 (2 nmol per mouse) or Pam3 (2 nmol per mouse) at groin. Three days after immunization, OT-II CD4^+ T cells from inguinal lymph nodes were analyzed by flow cytometry.
Figure 5 SUP3 enhanced antigen presentation ability of CD11b^+ conventional dendritic cells (cDCs) and production of antibodies against thymus-dependent (TD) antigens. […] Three days after immunization, division of OT-II CD4^+ T cells from inguinal lymph nodes were analyzed by flow cytometry (B). Absolute numbers of proliferated OT-II CD4^+ T cells were calculated in (C). […] Cells were then thoroughly washed and cocultured with CFSE-stained OT-II CD4^+ T cells for 4 days and analyzed by flow cytometry. (D) The division of OT-II cells was measured by reduced level of CFSE-labeling. (E) Absolute numbers of proliferated T cells from (D) were calculated. (F) SUP3 (2 nmol per mouse), Pam3 (2 nmol per mouse), or PBS were i.v. injected into mice for 1 h, and splenic CD11b^+ cDCs were enriched and analyzed for CD86 expression by flow cytometry. […] The cytokines from supernatant were determined by ELISA (*p < 0.05, **p < 0.01). […]

affinity (TLR2): comparable with Pam3
Compound: CCCCCCCCCCCCCCCC(=O)N[C@@H](CSC[C@@H](COC(=O)NCCCCCCCCCCCCCC)OC(=O)NCCCCCCCCCCCCCC)C(=O)NCC(=O)N[C@@H](CCCCN)C(=O)N[C@@H](CCCCN)C(=O)N[C@@H](CCCCN)C(=O)O [SUP3, (2S,5S,8S,14R,18R)-2,5,8-tris(4-aminobutyl)-4,7,10,13,21-pentaoxo-14-palmitamido-18-((tetradecylcarbamoyl)oxy)-20-oxa-16-thia-3,6,9,12,22-pentaazahexatriacontan-1-oic acid] (Palmitoyl-C(X1)GKKK-OH)
titers of TD antigen-specific antibodies (IgM, total IgG, high affinity IgG) [1]: higher titers
proliferation of OT-II CD4+ T cells in draining lymph nodes (OT-II CD4^+ T cells): more proliferation of OT-II CD4^+ T cells than that with Pam3
